Measurements published in ChEMBL document CHEMBL4418308, “cGAS ANTAGONIST COMPOUNDS” (2017).

Columns and labels:
[1] = target: T1, Cyclic GMP-AMP synthase (Homo sapiens, UniProt Q8N884); test: Inhibition of CGAS in human THP1 cells transfected with interferon stimulatory DNA and measured after 16 hrs by Gaussia luciferase reporter gene assay; type: cell-based
[2] = target: T1, Cyclic GMP-AMP synthase; test: Inhibition of recombinant His6-SUMO tagged human CGAS expressed in Escherichia coli BL21/pLys cells incubated for 20 mins by Kinase Glo chemiluminescence assay
[3] = target: T1, Cyclic GMP-AMP synthase; test: Inhibition of CGAS in human THP1 cells transfected with mock Sendai virus and measured after 16 hrs by Gaussia luciferase reporter gene assay; type: cell-based

T1 sequence (Q8N884 whole entry): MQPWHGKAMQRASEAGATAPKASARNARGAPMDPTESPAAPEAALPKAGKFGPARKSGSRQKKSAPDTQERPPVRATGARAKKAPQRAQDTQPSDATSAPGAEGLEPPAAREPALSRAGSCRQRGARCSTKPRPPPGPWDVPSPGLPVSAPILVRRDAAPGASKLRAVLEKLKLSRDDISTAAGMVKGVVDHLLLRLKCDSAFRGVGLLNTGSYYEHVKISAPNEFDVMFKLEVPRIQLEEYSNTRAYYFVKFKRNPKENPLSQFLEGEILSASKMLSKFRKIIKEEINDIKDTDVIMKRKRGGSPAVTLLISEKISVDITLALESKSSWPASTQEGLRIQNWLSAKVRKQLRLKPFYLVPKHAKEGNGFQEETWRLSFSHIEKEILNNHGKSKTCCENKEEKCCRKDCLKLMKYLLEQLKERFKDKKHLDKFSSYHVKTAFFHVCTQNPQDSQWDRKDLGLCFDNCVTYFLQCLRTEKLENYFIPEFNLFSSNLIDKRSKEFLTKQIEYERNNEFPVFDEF

IC50 [1] [nM] | IC50 [2] [nM] | SMILES | IC50 [3] [nM]
2500 to 10000 | ≤ 500 | CCOc1cc(/C=C2\Sc3ncccc3C2=O)c(Br)cc1O | 
2500 to 10000 | ≤ 500 | O=C1/C(=C/c2cc(OCc3cccnc3)c(O)cc2Br)Sc2ncccc21 | 
2500 to 10000 | ≤ 500 | COc1cc(/C=C2\Sc3ncccc3C2=O)c(Br)cc1O | 
≥ 10000 | ≤ 500 | CN1C(=O)S/C(=C\c2cc(OCc3cnc([S+](C)[O-])nc3N)c(O)c(F)c2Br)C1=O (centres undefined) | 
≤ 2500 | ≤ 500 | Cc1nc(N)ncc1COc1cc(/C=C2\Sc3ncccc3C2=O)c(Br)cc1O | 
≤ 2500 | 500 to 10000 | Nc1ncc(COc2cc(/C=c3\sc4nccn4c3=O)c(Br)cc2O)cn1 | 
2500 to 10000 | ≤ 500 | CC(Oc1cc(/C=C2\Sc3ncccc3C2=O)c(Br)cc1O)c1cnc(NCCO)nc1 (centres undefined) | 
≤ 2500 | ≤ 500 | COc1cc(/C=C2\SC(=O)N(C)C2=O)c(Br)cc1O | ≥ 10000
≤ 2500 | ≤ 500 | CN1C(=O)S/C(=C\c2cc(OCCc3cnc(N)nc3)c(O)cc2Br)C1=O | 
2500 to 10000 | 500 to 10000 | CCN1C(=O)S/C(=C\c2cc(OC)c(O)cc2Br)C1=O | 
2500 to 10000 | ≤ 500 | CC(Oc1cc(/C=C2\Sc3ncc(F)cc3C2=O)c(Br)c(F)c1O)c1cnc(N)nc1 (centres undefined) | 
2500 to 10000 | ≤ 500 | Nc1ncc(COc2cc(/C=C3\Sc4ncccc4C3=O)c(Br)cc2O)c(C2CC2)n1 | 
≥ 10000 | 500 to 10000 | CC(Oc1cc(/C=c2\sc3nccn3c2=O)c(Br)c(F)c1O)c1cnc(N)nc1 (centres undefined) | 
≤ 2500 | 500 to 10000 | COc1cc(/C=C2\Sc3ccccc3C2=O)c(Br)cc1O | 
2500 to 10000 | ≤ 500 | Cc1ncc(COc2cc(/C=C3\Sc4ncccc4C3=O)c(Br)cc2O)cn1 | 
2500 to 10000 | ≤ 500 | Cc1ncc(COc2cc(/C=C3\SC(=O)C(C)C3=O)c(Br)c(F)c2O)c(N)n1 (centres undefined) | 
2500 to 10000 | ≤ 500 | O=C1/C(=C/c2cc(OCc3cnc(Cl)nc3)c(O)cc2Br)Sc2ncccc21 | 
≤ 2500 | ≤ 500 | CC(Oc1cc(/C=C2\SC(=O)N(C)C2=O)c(Br)c(F)c1O)c1cnc(N)nc1 (centres undefined) | 
≥ 10000 | ≤ 500 | CN1C(=O)S/C(=C\c2cc(OCc3cncnc3N)c(O)c(F)c2Br)C1=O | 
2500 to 10000 | ≤ 500 | CC(Oc1cc(/C=C2\Sc3ncccc3C2=O)c(Br)c(F)c1O)c1cnc(N)nc1 (centres undefined) | 

SMILES | IC50 [1] [nM] | IC50 [2] [nM] | IC50 [3] [nM]
CN1C(=O)S/C(=C\c2cc(OCc3cnc(Cl)nc3N)c(O)c(F)c2Br)C1=O | 2500 to 10000 | ≤ 500 | 
CN1C(=O)S/C(=C\c2cc(OCc3cncnc3)c(O)c(F)c2Br)C1=O | 2500 to 10000 | ≤ 500 | 
CN1C(=O)S/C(=C\c2cc(OCc3cccnc3)c(O)c(F)c2Br)C1=O | 2500 to 10000 | ≤ 500 | 
CC(Oc1cc(/C=C2\SC(=O)N(C)C2=O)c(Br)c(F)c1O)c1cncnc1N (centres undefined) | ≥ 10000 | 500 to 10000 | 
CN1C(=O)S/C(=C\c2cc(OCc3cccnc3)c(O)cc2Br)C1=O | 2500 to 10000 | ≤ 500 | 
CN1C(=O)S/C(=C\c2cc(OCc3cnc(Cl)nc3)c(O)c(F)c2Br)C1=O | 2500 to 10000 | ≥ 10000 | 
COc1cc(/C=C2\SC(=O)N(C)C2=O)c(Br)cc1NS(=O)(=O)c1csc(N)n1 | ≤ 2500 | 500 to 10000 | 
COc1cc(/C=C2\SC(=O)N(C)C2=O)c(Br)c(F)c1O | 2500 to 10000 | ≤ 500 | ≥ 10000
CN1C(=O)S/C(=C\c2cc(OCc3cnc(NCc4cccnc4)nc3)c(O)c(F)c2Br)C1=O | 2500 to 10000 | 500 to 10000 | 
CN1C(=O)S/C(=C\c2cc(OCc3ccncc3)c(O)cc2Br)C1=O | ≤ 2500 | 500 to 10000 | 
CN1C(=O)S/C(=C\c2cc(OCc3cccc4[nH]ccc34)c(O)cc2Br)C1=O | 2500 to 10000 | 500 to 10000 | 
CN1C(=O)S/C(=C\c2cc(OC(F)(F)F)c(O)cc2Br)C1=O | ≤ 2500 | ≥ 10000 | 2500 to 10000
CN1C(=O)S/C(=C\c2cc(OCC(=O)c3cnc(N)nc3)c(O)c(F)c2Br)C1=O | 2500 to 10000 | 500 to 10000 | 
